Among the data in ChEMBL document CHEMBL5678818, “Discovery of potent SOS1 inhibitors that block RAS activation via disruption of the RAS-SOS1 interaction” (Proc Natl Acad Sci U S A, 2019) are Activity values, retold here.

Assay [1] deals with Serine/threonine-protein kinase OSR1 (Homo sapiens) (UniProt O95747). Kind of assay: Inhibition of OSR1 (unknown origin) assessed as residual activity at 1000 nM by KINOMEscan analysis relative to control.
The target in assay [2] is T1, Serine/threonine-protein kinase STK11 (Homo sapiens) (UniProt Q15831).
T1 sequence (whole entry): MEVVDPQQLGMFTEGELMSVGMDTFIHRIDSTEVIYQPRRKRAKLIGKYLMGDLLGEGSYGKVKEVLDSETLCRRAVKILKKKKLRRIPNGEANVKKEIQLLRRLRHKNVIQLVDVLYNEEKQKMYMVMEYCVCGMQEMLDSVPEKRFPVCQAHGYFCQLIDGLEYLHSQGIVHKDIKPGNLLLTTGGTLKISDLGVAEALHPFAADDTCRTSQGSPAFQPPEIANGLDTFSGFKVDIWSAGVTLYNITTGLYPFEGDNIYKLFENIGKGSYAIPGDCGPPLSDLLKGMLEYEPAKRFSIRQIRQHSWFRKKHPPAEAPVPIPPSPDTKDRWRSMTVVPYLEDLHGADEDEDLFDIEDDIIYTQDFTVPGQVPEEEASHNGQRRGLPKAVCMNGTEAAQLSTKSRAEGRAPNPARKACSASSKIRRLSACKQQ
Kind of assay: Inhibition of LKB1 (unknown origin) assessed as residual activity at 1000 nM by KINOMEscan analysis relative to control.

Assay [3] deals with Activin receptor type-2A (Homo sapiens) (UniProt P27037). Nature of the assay: Inhibition of ACVR2A (unknown origin) assessed as residual activity at 1000 nM by KINOMEscan analysis relative to control.
The target in assay [4] is Hepatocyte growth factor receptor (Homo sapiens) (UniProt P08581). Nature of the assay: Inhibition of MET (unknown origin) assessed as residual activity at 1000 nM by KINOMEscan analysis relative to control.
In assay [5] the target is Rho-associated protein kinase 1 (Homo sapiens) (UniProt Q13464). Kind of assay: Inhibition of ROCK1 (unknown origin) assessed as residual activity at 1000 nM by KINOMEscan analysis relative to control.
Assay [6] addresses Citron Rho-interacting kinase (Homo sapiens) (UniProt O14578). Kind of assay: Inhibition of CIT (unknown origin) assessed as residual activity at 1000 nM by KINOMEscan analysis relative to control.
Assay [7] addresses Mitogen-activated protein kinase 3 (Homo sapiens) (UniProt P27361). Nature of the assay: Inhibition of ERK1 (unknown origin) assessed as residual activity at 1000 nM by KINOMEscan analysis relative to control.
The subject of assay [8] is Phosphatidylinositol 4,5-bisphosphate 3-kinase catalytic subunit alpha isoform (Homo sapiens), P42336 [I800L]. Kind of assay: Inhibition of PIK3CA I800L mutant (unknown origin) assessed as residual activity at 1000 nM by KINOMEscan analysis relative to control.
Assay [9] deals with ALK tyrosine kinase receptor (Homo sapiens), Q9UM73 [C1156Y]. Nature of the assay: Inhibition of ALK C1156Y mutant (unknown origin) assessed as residual activity at 1000 nM by KINOMEscan analysis relative to control.
The target in assay [10] is T2, Serine/threonine-protein kinase 17A (Homo sapiens) (UniProt Q9UEE5).
T2 sequence (whole entry): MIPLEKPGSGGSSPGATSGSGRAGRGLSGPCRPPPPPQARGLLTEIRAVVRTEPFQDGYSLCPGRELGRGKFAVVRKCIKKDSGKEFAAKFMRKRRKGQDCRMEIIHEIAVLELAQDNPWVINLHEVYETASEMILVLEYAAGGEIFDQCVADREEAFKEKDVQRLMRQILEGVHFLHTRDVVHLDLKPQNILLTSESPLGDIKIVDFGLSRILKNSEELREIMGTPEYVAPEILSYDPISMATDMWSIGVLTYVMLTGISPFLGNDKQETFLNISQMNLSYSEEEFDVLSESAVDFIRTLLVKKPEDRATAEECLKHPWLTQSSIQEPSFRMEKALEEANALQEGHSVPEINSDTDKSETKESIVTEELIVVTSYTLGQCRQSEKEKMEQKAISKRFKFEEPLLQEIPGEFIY
Nature of the assay: Inhibition of DRAK1 (unknown origin) assessed as residual activity at 1000 nM by KINOMEscan analysis relative to control.

The target in assay [11] is T3, Serine/threonine-protein kinase ULK2 (Homo sapiens) (UniProt Q8IYT8).
T3 sequence (whole entry): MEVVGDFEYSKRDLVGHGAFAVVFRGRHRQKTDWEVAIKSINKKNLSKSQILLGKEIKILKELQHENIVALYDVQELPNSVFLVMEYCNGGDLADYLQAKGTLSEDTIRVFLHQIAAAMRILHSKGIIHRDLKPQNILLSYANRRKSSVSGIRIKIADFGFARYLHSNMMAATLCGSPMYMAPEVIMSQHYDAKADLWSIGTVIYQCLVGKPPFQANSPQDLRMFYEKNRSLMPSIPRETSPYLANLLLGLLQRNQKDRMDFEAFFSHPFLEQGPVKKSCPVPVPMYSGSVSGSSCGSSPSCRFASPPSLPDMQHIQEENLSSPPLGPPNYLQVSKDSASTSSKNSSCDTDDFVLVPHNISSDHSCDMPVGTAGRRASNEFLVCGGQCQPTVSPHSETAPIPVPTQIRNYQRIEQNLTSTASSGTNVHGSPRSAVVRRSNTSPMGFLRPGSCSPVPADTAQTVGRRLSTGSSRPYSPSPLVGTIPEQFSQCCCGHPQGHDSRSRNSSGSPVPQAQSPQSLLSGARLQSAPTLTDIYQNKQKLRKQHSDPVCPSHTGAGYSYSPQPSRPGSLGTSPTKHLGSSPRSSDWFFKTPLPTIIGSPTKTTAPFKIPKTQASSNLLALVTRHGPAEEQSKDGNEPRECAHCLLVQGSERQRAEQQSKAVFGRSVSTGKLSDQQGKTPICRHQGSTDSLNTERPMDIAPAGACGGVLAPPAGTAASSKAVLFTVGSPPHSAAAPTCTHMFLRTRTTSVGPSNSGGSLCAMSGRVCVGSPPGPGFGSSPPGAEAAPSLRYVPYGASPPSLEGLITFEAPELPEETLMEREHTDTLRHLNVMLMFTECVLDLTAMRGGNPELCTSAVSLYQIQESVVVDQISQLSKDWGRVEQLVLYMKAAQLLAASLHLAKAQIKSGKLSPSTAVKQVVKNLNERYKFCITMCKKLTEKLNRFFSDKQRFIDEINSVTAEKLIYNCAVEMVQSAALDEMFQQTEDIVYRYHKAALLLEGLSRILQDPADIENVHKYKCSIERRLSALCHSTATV
Kind of assay: Inhibition of ULK2 (unknown origin) assessed as residual activity at 1000 nM by KINOMEscan analysis relative to control.

Sequence of Hepatocyte growth factor receptor (Homo sapiens) (P08581 whole entry): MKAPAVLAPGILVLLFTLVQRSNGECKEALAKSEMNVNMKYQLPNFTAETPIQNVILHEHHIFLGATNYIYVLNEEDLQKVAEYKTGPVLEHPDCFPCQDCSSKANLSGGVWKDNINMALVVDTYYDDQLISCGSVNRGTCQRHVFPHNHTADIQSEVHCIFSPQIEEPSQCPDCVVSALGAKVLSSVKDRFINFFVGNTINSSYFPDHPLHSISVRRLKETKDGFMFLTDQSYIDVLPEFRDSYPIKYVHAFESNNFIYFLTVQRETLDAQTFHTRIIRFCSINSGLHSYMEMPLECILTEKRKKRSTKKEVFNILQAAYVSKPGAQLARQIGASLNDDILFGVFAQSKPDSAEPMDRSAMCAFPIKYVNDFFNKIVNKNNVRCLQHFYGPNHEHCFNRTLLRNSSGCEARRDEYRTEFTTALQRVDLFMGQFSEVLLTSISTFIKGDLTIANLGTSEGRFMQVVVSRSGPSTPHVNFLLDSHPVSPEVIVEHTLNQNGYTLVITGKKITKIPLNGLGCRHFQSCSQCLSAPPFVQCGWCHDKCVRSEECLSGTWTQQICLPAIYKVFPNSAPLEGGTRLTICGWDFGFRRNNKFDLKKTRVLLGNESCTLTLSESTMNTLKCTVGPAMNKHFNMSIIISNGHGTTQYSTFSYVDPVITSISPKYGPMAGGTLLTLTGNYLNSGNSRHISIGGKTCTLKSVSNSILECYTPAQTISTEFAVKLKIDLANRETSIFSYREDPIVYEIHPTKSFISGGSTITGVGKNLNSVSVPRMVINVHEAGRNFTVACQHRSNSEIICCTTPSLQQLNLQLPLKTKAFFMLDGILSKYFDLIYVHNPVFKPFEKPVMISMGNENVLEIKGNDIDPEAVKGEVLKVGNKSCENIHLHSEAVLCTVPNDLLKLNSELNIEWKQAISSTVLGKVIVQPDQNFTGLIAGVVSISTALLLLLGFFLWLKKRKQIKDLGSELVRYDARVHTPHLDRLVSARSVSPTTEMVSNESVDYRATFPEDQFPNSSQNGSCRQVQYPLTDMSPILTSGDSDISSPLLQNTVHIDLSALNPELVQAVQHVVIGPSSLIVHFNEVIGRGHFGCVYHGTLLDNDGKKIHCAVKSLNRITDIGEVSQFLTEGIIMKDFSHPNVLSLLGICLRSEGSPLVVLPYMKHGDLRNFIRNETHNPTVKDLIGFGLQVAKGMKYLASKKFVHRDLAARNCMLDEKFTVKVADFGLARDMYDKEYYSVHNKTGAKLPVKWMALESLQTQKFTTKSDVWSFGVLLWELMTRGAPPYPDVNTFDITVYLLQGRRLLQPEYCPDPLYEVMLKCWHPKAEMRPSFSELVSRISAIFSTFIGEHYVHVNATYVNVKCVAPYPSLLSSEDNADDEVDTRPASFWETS
Sequence of Rho-associated protein kinase 1 (Homo sapiens) (Q13464 2-1354 limits assumed): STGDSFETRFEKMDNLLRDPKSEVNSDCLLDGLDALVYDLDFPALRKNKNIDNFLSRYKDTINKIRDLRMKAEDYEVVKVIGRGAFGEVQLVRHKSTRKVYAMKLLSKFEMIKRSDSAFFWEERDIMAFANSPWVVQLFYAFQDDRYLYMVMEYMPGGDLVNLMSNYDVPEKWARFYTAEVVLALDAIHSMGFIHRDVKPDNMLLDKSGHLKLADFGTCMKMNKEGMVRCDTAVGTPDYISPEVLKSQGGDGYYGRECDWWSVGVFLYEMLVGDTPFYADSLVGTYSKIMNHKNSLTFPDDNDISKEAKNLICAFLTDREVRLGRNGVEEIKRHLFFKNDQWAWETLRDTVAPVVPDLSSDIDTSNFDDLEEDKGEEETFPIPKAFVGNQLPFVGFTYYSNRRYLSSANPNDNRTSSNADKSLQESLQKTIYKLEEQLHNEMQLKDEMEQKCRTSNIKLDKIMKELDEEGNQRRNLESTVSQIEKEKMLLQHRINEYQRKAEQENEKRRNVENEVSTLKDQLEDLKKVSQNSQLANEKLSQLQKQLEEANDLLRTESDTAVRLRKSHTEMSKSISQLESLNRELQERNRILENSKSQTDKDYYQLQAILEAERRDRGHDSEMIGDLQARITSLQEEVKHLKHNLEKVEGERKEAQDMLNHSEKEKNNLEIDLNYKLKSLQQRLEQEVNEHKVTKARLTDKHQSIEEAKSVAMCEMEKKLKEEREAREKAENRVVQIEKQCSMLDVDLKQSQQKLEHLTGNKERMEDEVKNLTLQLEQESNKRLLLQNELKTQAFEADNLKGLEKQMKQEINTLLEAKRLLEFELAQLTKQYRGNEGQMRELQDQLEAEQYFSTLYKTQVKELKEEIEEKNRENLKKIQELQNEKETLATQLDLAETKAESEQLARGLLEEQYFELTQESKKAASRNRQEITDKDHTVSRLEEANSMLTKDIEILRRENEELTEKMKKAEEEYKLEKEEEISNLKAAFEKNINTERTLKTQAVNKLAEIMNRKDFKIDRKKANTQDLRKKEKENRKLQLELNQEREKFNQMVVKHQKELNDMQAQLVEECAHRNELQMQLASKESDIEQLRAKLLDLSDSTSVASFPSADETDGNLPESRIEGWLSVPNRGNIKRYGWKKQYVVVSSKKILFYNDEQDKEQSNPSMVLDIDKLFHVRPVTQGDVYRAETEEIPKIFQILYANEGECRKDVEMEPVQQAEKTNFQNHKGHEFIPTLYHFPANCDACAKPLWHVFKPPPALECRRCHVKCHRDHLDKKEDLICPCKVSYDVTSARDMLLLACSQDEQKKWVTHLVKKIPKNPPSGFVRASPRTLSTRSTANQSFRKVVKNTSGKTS
Sequence of Activin receptor type-2A (Homo sapiens) (P27037 whole entry): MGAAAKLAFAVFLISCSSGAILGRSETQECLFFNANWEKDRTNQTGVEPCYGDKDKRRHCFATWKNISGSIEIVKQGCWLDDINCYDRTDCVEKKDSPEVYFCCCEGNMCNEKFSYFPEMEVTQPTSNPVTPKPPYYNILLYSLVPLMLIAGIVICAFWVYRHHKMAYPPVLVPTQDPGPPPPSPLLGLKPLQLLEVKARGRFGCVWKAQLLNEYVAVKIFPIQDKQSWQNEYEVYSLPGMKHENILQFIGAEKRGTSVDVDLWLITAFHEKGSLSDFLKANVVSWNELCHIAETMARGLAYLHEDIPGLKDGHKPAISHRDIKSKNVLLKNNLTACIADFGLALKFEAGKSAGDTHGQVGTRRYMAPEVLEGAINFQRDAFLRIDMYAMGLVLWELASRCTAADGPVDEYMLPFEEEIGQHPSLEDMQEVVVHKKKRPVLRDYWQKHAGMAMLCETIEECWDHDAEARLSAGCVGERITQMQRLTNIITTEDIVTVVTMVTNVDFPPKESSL
Sequence of Phosphatidylinositol 4,5-bisphosphate 3-kinase catalytic subunit alpha isoform (Homo sapiens), P42336 [I800L] (P42336 whole entry I800L, canonical isoform): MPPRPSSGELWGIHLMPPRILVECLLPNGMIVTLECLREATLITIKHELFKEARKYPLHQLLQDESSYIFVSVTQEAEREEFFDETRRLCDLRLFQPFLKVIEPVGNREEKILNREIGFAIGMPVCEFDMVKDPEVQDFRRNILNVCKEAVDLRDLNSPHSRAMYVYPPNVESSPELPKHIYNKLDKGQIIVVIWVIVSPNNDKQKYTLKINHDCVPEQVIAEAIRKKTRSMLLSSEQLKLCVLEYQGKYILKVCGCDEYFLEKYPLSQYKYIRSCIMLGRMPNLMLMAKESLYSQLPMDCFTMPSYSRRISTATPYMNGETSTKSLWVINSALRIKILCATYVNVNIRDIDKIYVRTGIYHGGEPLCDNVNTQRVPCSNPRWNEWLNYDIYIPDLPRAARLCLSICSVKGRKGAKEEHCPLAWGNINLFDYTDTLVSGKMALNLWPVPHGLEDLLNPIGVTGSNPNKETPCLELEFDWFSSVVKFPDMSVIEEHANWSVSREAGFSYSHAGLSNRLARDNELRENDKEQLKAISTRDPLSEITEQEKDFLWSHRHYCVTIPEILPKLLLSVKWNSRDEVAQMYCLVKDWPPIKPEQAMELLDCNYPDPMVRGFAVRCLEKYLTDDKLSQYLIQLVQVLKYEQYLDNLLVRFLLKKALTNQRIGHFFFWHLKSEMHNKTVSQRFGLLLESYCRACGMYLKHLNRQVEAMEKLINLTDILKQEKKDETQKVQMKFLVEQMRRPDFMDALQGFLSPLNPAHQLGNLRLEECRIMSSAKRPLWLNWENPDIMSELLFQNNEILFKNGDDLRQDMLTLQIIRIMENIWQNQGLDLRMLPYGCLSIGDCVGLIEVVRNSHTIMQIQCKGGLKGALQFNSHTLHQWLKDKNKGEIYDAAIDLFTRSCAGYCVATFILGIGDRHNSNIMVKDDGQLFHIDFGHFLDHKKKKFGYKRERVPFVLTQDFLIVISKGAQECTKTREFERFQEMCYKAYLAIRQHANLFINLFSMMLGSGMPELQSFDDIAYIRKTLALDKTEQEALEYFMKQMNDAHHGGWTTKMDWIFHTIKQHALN
Sequence of Mitogen-activated protein kinase 3 (Homo sapiens) (P27361 whole entry, canonical isoform): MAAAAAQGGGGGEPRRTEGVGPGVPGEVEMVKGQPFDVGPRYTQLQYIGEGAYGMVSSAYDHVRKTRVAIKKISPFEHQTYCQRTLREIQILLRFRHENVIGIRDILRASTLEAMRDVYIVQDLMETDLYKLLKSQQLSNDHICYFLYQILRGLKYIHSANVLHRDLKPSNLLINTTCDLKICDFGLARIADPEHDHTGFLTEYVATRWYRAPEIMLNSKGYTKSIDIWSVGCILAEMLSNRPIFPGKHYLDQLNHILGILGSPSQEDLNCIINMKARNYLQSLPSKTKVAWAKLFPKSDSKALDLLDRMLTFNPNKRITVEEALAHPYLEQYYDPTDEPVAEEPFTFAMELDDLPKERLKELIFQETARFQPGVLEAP

Turning to `COc1cc2ncnc(N[C@H](C)c3cccc4ccccc34)c2cc1OC`, the Activity was 97% in [1]; 100% in [2]; 100% in assay [3]; 100% in [4]; 88% in [5]; 85% in assay [6]. In addition, the Activity in [7] came out at 100%; in assay [8] it was 96%; in [9], 86%; in assay [10], 100%; in assay [11] it was 92%.

Turning to `COc1cc2nc(C)nc(N[C@H](C)c3cccc(-c4cn[nH]c4)c3)c2cc1OC`, the Activity in [1] was determined as 93%; in assay [2], 100%; in assay [3] it was 90%; in assay [4], 97%; in assay [5], 96%; in assay [6], 93%. Further, the Activity came out at 100% in [7]; 63% in [8]; 80% in [9]; 87% in assay [10]; 60% in assay [11].
